Measured values reported in US7595345B2, “Vitamin D receptor modulators” (Eli Lilly and Company, priority 2003, dated 2009).

System: KERtr cells
Test: Keratinocyte proliferation assay
Type: cell-based
Settings: Homo sapiens, 72 hr, BrdU incorporation, read-out: Kera. Prolif. IC50
Procedure: 5. The Keratinocyte Proliferation Assay
This Assay is indicative for the treatment of psoriasis.
(5) The Keratinocyte Proliferation Assay:
KERtr cells (Human skin keratinocyte transformed with a retrovirus vector, obtained from ATCC) were plated in 96-well flat-bottomed plates (3000 cells/well) in 100 µl keratinocyte serum free medium supplemented with bovine pituitary extract in the absence of EGF (Life Technologies, Rockville, Md.) and incubated at 37° C. for two days. The cells were treated with various concentrations of VDR ligands (ten-fold serial dilution from 10,000 nM to 0.1 nM in triplicate), dissolved in 100 µl keratinocyte serum free medium supplemented with bovine pituitary extract in the absence of EGF and incubated at 37° C. for 72 hr. BrdU (5-bromo-2′-deoxyuridine) incorporation was analyzed as a measure of DNA replication (Cell proliferation ELISA kit, Roche Diagnostics, Indianapolis, Ind.) and absorbance was measured at 405 nm. Potency values (IC50) values were determined as the concentration (nM) of compound that elicited a half-maximal response.

In the case of `CCC(O)(CC)COc1ccc(C(CC)(CC)c2ccc(C(=O)NCC(=O)O)c(C)c2)cc1C` [Ex. 3, (4-{1-ethyl-1-[4-(2-ethyl-2-hydroxy-butoxy)-3-methyl-phenyl]-propyl}-2-methyl-benzoylamino)-acetic acid], the IC50 is reported as 121 nM.
